According to patent publication US20060241182A1, “Antibiotic, functional cosmetic and functional food containing levulinic acid and their derivatives” (priority 2001, published 2006):
≈ marks a conversion by molar mass, not a printed value. Where two headings read alike, the source gives them in different places.

Columns and labels:
[1] = tested on: Pseudomonas aeruginosa KCTC 1636; test: microbe, parasite or virus in culture; settings: KCTC1636
Method: (§1) Staphylococcus aureus KCTC 1621, Pseudomonas aeroginosa KCTC 1636, methicillin-resistant Staphylococcus aureus, Vancomycin resistant Enterococcus and R-Pseudomonas aeroginosa were cultured in tryptic soy broth at 37° C. with shaking.
(§2) Wherein, all the bacteria were cultured for 12˜18 hours.
(§3) MIC of levulinic acid was measured on 96 well plates. Media and levulinic acid (200 mg/ml) mixed and diluted 1:2 fold serially. Dilutants were added on 96 well plate. Equal amount of bacterial suspension (10^6 CFU/ml) was added in each well. Wherein the inoculated bacteria were cultured at 30° C. for 12˜18 hours. The proliferations of bacteria on testing medium were measured to determine MIC against the test bacteria.

[2] = tested on: Resistant Pseudomonas aeruginosa; test: microbe, parasite or virus in culture
Method: as §1, §2, §3

[3] = tested on: Staphylococcus aureus KCTC 1621; test: microbe, parasite or virus in culture; settings: KCTC1621
Method: as §1, §2, §3

[4] = tested on: methicillin-resistant Staphylococcus aureus; test: microbe, parasite or virus in culture
Method: as §1, §2, §3

[5] = tested on: vancomycin-resistant Enterococcus; test: microbe, parasite or virus in culture
Method: as §1, §2, §3

Edwardsiella tarda GY-01 = test: microbe, parasite or virus in culture; settings: GY01
Method: (§4) Lactococcus garvieae YT-3, Edwardsiella tarda GY-01, Vibrio anguillarum YT-85805, Enterococcus faecium KCTC 3095 and tooth-decaying bacteria of Streptococcus spp. were cultured in Brain heart infusion media at 37° C. with shaking. Anaerobic tooth-decaying bacteria, Streptococcus spp., were cultured with standing in gas generating kit. Anaerobic Propionibacterium acnes KCTC 3326, was cultured in GAM media with standing in gas generating kit.
as §2, §3

[6] = tested on: Enterococcus faecium KCTC 3095; test: microbe, parasite or virus in culture; settings: KCTC3095
Method: as §4, §2, §3

[7] = tested on: Lactococcus garvieae YT-3; test: microbe, parasite or virus in culture; settings: YT3
Method: as §4, §2, §3

[8] = tested on: Vibrio anguillarum YT-85805; test: microbe, parasite or virus in culture; settings: YT85805
Method: as §4, §2, §3

[9] = tested on: Candida albicans KCTC 7753; test: microbe, parasite or virus in culture; settings: KCTC7753
Method: as §2, §3

[10] = tested on: Salmonella typhimurium KCTC 1925; test: microbe, parasite or virus in culture; settings: Salmonella enterica
Method: as §2, §3

Escherichia coli O157 = test: MIC of levulinic acid, serial dilution on 96 well plates; format: cell-based
Method: (§5) Also, Bacillus cereus KCTC 1014, Bacillus subtillis IFO 3007, Escherichia coli O 157 and Escherichia coli 1039 were cultured in complex media (0.8% of nutrient broth, 1% of yeast extract, 2% of NaCl and 0.02% of dextrose) at 37° C. with shaking.
as §2, §3

[11] = tested on: Bacillus cereus KCTC 1014; test: microbe, parasite or virus in culture; settings: KCTC1014
Method: as §5, §2, §3

[12] = tested on: Bacillus subtilis IF0 3007; test: microbe, parasite or virus in culture; settings: IF03007
Method: as §5, §2, §3

[13] = tested on: Escherichia coli KCTC 1039; test: microbe, parasite or virus in culture; settings: KCTC1039
Method: as §5, §2, §3

[14] = tested on: Hansenula anomala IFO 0149; test: microbe, parasite or virus in culture; settings: IFO0149
Method: (§6) Saccharomyces cerevisiae breneri hefe rasse VIII and Hansenula anomala IFO 0149 were cultured in complex medium (0.3% of yeast extract, 0.3% of nutrient broth, 0.5% of peptone and 0.1% of glucose) at 25° C. with shaking.
as §2, §3

[15] = tested on: Saccharomyces cerevisiae breneri heferasse VII; test: microbe, parasite or virus in culture
Method: as §6, §2, §3

[16] = tested on: Propionibacterium acnes KCTC 3326; test: microbe, parasite or virus in culture; settings: Cutibacterium acnes, KCTC3326
Method: as §4, §2, §3
(§7) Also, in case of anaerobic bacteria, according to the same method as above, cap tubes were used in place of 96 well plates.

[17] = tested on: Streptococcus doweni Mfe28; test: microbe, parasite or virus in culture
Method: as §4, §2, §3, §7

Streptococcus mutans BHT = test: microbe, parasite or virus in culture
Method: as §4, §2, §3, §7

[18] = tested on: Streptococcus mutans GS-5; test: microbe, parasite or virus in culture; settings: GS5
Method: as §4, §2, §3, §7

[19] = tested on: Streptococcus mutans HS-6; test: microbe, parasite or virus in culture; settings: HS6
Method: as §4, §2, §3, §7

[20] = tested on: Streptococcus mutans Ingbritt; test: microbe, parasite or virus in culture
Method: as §4, §2, §3, §7

[21] = tested on: Streptococcus mutans KCTC 3065; test: microbe, parasite or virus in culture; settings: KCTC3065
Method: as §4, §2, §3, §7

[22] = tested on: Streptococcus mutans LM-7; test: microbe, parasite or virus in culture; settings: LM7
Method: as §4, §2, §3, §7

[23] = tested on: Streptococcus mutans OMZ-175; test: microbe, parasite or virus in culture; settings: OMZ175
Method: as §4, §2, §3, §7

[24] = tested on: Streptococcus mutans OMZ-176; test: microbe, parasite or virus in culture; settings: OMZ176
Method: as §4, §2, §3, §7

[25] = tested on: Streptococcus salivarius ATCC 13419; test: microbe, parasite or virus in culture; settings: ATCC13419
Method: as §4, §2, §3, §7

[26] = tested on: Streptococcus sobrinus coykendall 6715-1 ATCC 27352; test: microbe, parasite or virus in culture; settings: ATCC27352
Method: as §4, §2, §3, §7

Helicobacter pylori = test: microbe, parasite or virus in culture
Method: as §2, §3, §7

[27] = tested on: mouse fibroblast NIH3T3 cells; settings: 52 hours
Method: Cytotoxicity test of levulinic acid was accomplished by using mouse fibroblast NIH3T3 cells as testing cells. The cells were cultured in medium added 16.3 mg/ml, 12.2 mg/ml, 9.8 mg/ml and 4.9 mg/ml of levulinic acid for 52 hours, respectively.

drug-resistant bacteria = settings: summary of Table 1
Method: as §1, §4, §2, §3

[28] = tested on: pathogen infecting finny tribe and poultry; settings: summary of Table 2
Method: as §4, §2, §3

tooth-decaying bacteria = settings: summary of Table 3
Method: as §4, §2, §3, §7

[29] = tested on: general bacteria and yeast; settings: summary of Table 4
Method: as §5, §6, §2, §3

With `CC(=O)CCC(=O)O` [levulinic acid] the MIC [1] was 1500 µg/mL (≈ 12.9 mM), the MIC [2] was 2500 µg/mL (≈ 21.5 mM) and the MIC [3] was 3500 µg/mL (≈ 30.1 mM). The MIC [4] was 4000 µg/mL (≈ 34.4 mM), the MIC [5] was 3000 µg/mL (≈ 25.8 mM) and the MIC (Edwardsiella tarda GY-01) was 3500 µg/mL (≈ 30.1 mM). For the same compound, the MIC [6] was 4500 µg/mL (≈ 38.8 mM), the MIC [7] was 3500 µg/mL (≈ 30.1 mM) and the MIC [8] was 3000 µg/mL (≈ 25.8 mM). For the same compound, the MIC [9] was 6000 µg/mL (≈ 51.7 mM), the MIC [10] was 370 µg/mL (≈ 3.19 mM) and the MIC (Escherichia coli O157) was 2000 µg/mL. The MIC [11] was 1500 µg/mL (≈ 12.9 mM), the MIC [12] was 1500 µg/mL (≈ 12.9 mM) and the MIC [13] was 2000 µg/mL (≈ 17.2 mM). It also gave an MIC [14] of 3500 µg/mL (≈ 30.1 mM), an MIC [15] of 2500 µg/mL (≈ 21.5 mM) and an MIC [16] of 6000 µg/mL (≈ 51.7 mM). It also gave an MIC [17] of 4000 µg/mL (≈ 34.4 mM), an MIC (Streptococcus mutans BHT) of 4000 µg/mL (≈ 34.4 mM) and an MIC [18] of 5000 µg/mL (≈ 43.1 mM). It also gave an MIC [19] of 4000 µg/mL (≈ 34.4 mM), an MIC [20] of 4000 µg/mL (≈ 34.4 mM) and an MIC [21] of 4000 µg/mL (≈ 34.4 mM). It also gave an MIC [22] of 4000 µg/mL (≈ 34.4 mM), an MIC [23] of 4000 µg/mL (≈ 34.4 mM) and an MIC [24] of 5000 µg/mL (≈ 43.1 mM). It also gave an MIC [25] of 4000 µg/mL (≈ 34.4 mM), an MIC [26] of 4000 µg/mL (≈ 34.4 mM) and an MIC (Helicobacter pylori) of 0.78 µg/mL (≈ 0.00672 mM). The “Cytotoxicity: death / growth of the cells” value (“Cytotoxicity: death / growth” below) ([27]; medium added 9.8 mg/ml levulinic acid) was “not died, but their growth were inhibited”, the “Cytotoxicity: growth of the cells versus control cells” value ([27]; medium containing 4.9 mg/ml levulinic acid) was “no difference from one of control cells” and the “Cytotoxicity: death / growth” value ([27]; medium containing 12.2 mg/ml levulinic acid) was “died, or their growth were inhibited”. For the same compound, the “Cytotoxicity: death / growth” value ([27]; medium containing 16.3 mg/ml levulinic acid) was “died, or their growth were inhibited”, the “MIC against drug-resistant bacteria (range over Table 1)” value (drug-resistant bacteria) was 1.5˜4.5 mg/ml and the “MIC against pathogen infecting finny tribe and poultry (range over Table 2)” value [28] was 0.37˜3.5 mg/ml. The “MIC against tooth-decaying bacteria (range over Table 3)” value (tooth-decaying bacteria) was 4˜5 mg/ml and the “MIC against general bacteria and yeast (range over Table 4)” value [29] was 1.5˜6 mg/ml.
